Tests used:
MDA-MB-231 [1] = test: Antiproliferative activity against human MDA-MB-231 cells up to 72 hrs by MTT assay; assay type: functional, cell-based; settings: MDA-MB-231, 72 h
PC-3 = test: Antiproliferative activity against human PC3 cells up to 72 hrs by MTT assay; assay type: functional, cell-based; settings: PC-3, 72 h
MDA-MB-231 [2] = test: Potency index, ratio of curcumin IC50 to compound IC50 for human MDA-MB-231 cells; assay type: functional
HCT-116 = test: Antiproliferative activity against human HCT116 cells up to 72 hrs by MTT assay; assay type: functional, cell-based; settings: HCT-116, 72 h

| SMILES | IC50 (MDA-MB-231 [1]) [µM] | IC50 (PC-3) [µM] | Ratio IC50 (MDA-MB-231 [2]) | IC50 (HCT-116) [µM] |
| --- | --- | --- | --- | --- |
| COc1ccc(/C=C/C(O)=C/C(=O)/C=C/c2ccc(OC)c(OC(=O)C(C)(CO)CO)c2)cc1O | 2.29 | 2.32 | 2.4 - 12.2 | 1.95 |
| CCC(CO)(CO)C(=O)Oc1ccc(/C=C/C(=O)/C=C(O)/C=C/c2ccc(O)c(OC)c2)cc1OC | 4.66 | 12.5 | 2.4 - 12.2 | 11.4 |
| CCC(CO)(CO)C(=O)Oc1cc(/C=C/C(=O)/C=C(O)/C=C/c2ccc(OC)c(O)c2)ccc1OC | 3.85 | 7.03 | 2.4 - 12.2 | 3.64 |
| COc1ccc(/C=C/C(O)=C/C(=O)/C=C/c2ccc(OC(=O)C(C)(CO)CO)c(OC)c2)cc1OC | 2.55 | 7.64 | 2.4 - 12.2 | 4.77 |
| CCC(CO)(CO)C(=O)Oc1ccc(/C=C/C(=O)/C=C(O)/C=C/c2ccc(OC(=O)C(CC)(CO)CO)c(OC)c2)cc1OC | 2 | 4.21 | 2.4 - 12.2 | 1.34 |
| COc1cc(/C=C/C(O)=C/C(=O)/C=C/c2ccc(OC(=O)C(C)(CO)CO)c(OC)c2)ccc1O | 5.94 | 17.4 | 2.4 - 12.2 | 15.5 |
| COc1ccc(/C=C/C(=O)/C=C(O)/C=C/c2ccc(OC)c(OC(=O)C(C)(CO)CO)c2)cc1OC(=O)C(C)(CO)CO | 4.61 | 4.74 | 3.5 | 2.79 |
| CC(CO)(CO)C(=O)Oc1ccc(/C=C/C(=O)/C=C(O)/C=C/c2ccc(OC(=O)C(C)(CO)CO)cc2)cc1 | 6.74 | 5.59 | 2.4 - 12.2 | 4.1 |
